The values below come from patent US12624003B2, “Carboxylic acid containing indanyl compounds for the treatment of neurodegenerative diseases” (Celgene Corporation, priority 2020, dated 2026).

The assay deals with T1, S1P5 (Homo sapiens, UniProt Q9H228).
T1 construct: expressed in transfected cells; host or cells: CHO cells (membranes)
T1 sequence (Q9H228 whole entry, species assumed): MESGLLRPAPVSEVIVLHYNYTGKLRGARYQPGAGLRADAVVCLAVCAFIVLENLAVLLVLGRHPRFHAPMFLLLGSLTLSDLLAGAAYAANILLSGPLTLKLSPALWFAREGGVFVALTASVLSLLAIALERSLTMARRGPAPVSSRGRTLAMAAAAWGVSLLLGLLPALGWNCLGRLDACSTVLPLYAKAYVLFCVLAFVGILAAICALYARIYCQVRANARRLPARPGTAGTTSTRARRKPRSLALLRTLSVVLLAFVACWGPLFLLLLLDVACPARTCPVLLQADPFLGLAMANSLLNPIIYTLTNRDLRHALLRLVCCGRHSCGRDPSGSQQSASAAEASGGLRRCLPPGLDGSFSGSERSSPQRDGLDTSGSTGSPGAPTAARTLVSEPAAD
The experiment in a line: [35S]-GTPγS functional binding assay on CHO-S1P5 membranes. Format: biochemical. The settings on record: membranes of CHO cells expressing recombinant S1P5 receptors; measure of S1P5 agonism. As for the experimental part: CHO cells expressing recombinant S1P5 receptors were cultured in 500 cm^2 culture trays and, once confluent, rinsed and detached with cell-lifting buffer (10 mM HEPES, 154 mM NaCl, 6.85 mM EDTA, pH 7.4). Cells were then pelleted by centrifugation, resuspended, and homogenized in membrane preparation buffer (10 mM HEPES and 10 mM EDTA, pH 7.4) using a Polytron PT 1200E homogenizer (Kinematica, Luzern, Switzerland). Cellular proteins were pelleted by centrifugation at 48,000×g at 4° C. for 30 minutes. The resulting supernatant was discarded, and the pellet was re-suspended again in membrane preparation buffer, homogenized for a second time, and then centrifuged again as described above. The final cellular protein pellet was suspended in ice cold resuspension buffer (10 mM HEPES and 0.1 mM EDTA, pH 7.4), divided into aliquots, and stored at −80° C. until use.
Functional binding assays for [^35S]-GTPγS were performed in 96-well non-binding surface plates with a final volume of 200 μL. The test compounds were serially diluted in DMSO and added to assay plates using a Tecan D300E digital printer with a total volume of 0.4 μL. The control sphingosine-1-phosphate (S1P) was prepared separately by preparing a 400 μM stock solution from a 100 nmol pellet of SIP in 10 mM Na2CO3 with 2% s-cyclodextrin. The serial dilution of S1P was done using complete assay buffer (20 mM HEPES, 10 mM MgCl2, 100 mM NaCl, 1 mM EDTA, 0.1% fatty acid free bovine serum albumin (BSA), and 30 μg/mL saponin, pH 7.4) and transferred to wells already containing 0.4 μL DMSO. All the wells were then loaded to a total volume of 40 μL of complete assay buffer, except the non-specific binding (NSB) wells. For NSB wells, 40 μL/well of 50 μM GTPγS (Sigma Aldrich, cat #G8634, St. Louis, MO) was added to wells containing 0.4 μL of DMSO. The assay was started by the addition of 120 μL/well of CHO-S1P receptor membrane solution containing 40 μg/mL of membrane protein, 16.67 μM guanosine diphosphate (GDP; Sigma Aldrich, cat #G7127, St. Louis, MO), and 2.5 mg/mL of WGA PVT SPA beads in complete buffer. Assay plates were then sealed and incubated at room temperature with gentle agitation for 30 minutes. Next, 40 μL/well of 1 nM of [^35S]-GTPγS (PerkinElmer, cat #NEG030X250UC, Waltham, MA) in basic assay buffer (20 mM HEPES, 10 mM MgCl2, 100 mM NaCl, and 1 mM EDTA, pH 7.4) was added to the assay plates to yield a final concentration of […] and the plates were further incubated for 40 minutes at room temperature with gentle agitation. The assay was terminated by centrifugation of the plates at 1000 rpm for 3 minutes using an Eppendorf 5810R centrifuge (Eppendorf, Hamburg, Germany) and G protein bound radioactivity was quantitated using a MicroBeta2 microplate scintillation counter (PerkinElmer, Waltham, MA). As G protein bound radioactivity directly correlates to receptor activation and coupling to the G protein, this assay is a measure of S1P5 agonism.
Background: GTPγS resists hydrolysis and so accumulates on activated G proteins.
In the case of `O=C(O)C1CCN(C2CCc3cc(CCc4c(F)cccc4F)ccc32)CC1` (single isomer, unassigned) [Compound 28b, 1-(5-(2,6-difluorophenethyl)-2,3-dihydro-1H-inden-1-yl)piperidine-4-carboxylic acid], the EC50 (as a rule, the midpoint of the concentration-response curve) was in the range of 10 to 100 nM.
Take `O=C(O)C1CN(C2CCc3cc(-c4ccc(C5CC5)c(Cl)c4)ccc32)C1` (single isomer, unassigned) [Compound 30a, 1-(5-(3-chloro-4-cyclopropylphenyl)-2,3-dihydro-1H-inden-1-yl)azetidine-3-carboxylic acid]: the EC50 was not above 10 nM.
Under `O=C(O)C1CN(C2CCc3cc(-c4ccc(C5CC5)c(Cl)c4)ccc32)C1` (single isomer, unassigned) [Compound 30b, 1-(5-(3-chloro-4-cyclopropylphenyl)-2,3-dihydro-1H-inden-1-yl)azetidine-3-carboxylic acid] stands not above 10 nM; under `O=C(O)C1CN(C2CCc3cc(-c4ccc(C5CC5)c(F)c4)ccc32)C1` (single isomer, unassigned) [Compound 31a, 1-(5-(4-cyclopropyl-3-fluorophenyl)-2,3-dihydro-1H-inden-1-yl)azetidine-3-carboxylic acid], not above 10 nM.
For the compound `O=C(O)C1CN(C2CCc3cc(-c4ccc(C5CC5)c(F)c4)ccc32)C1` (single isomer, unassigned) [Compound 31b, 1-(5-(4-cyclopropyl-3-fluorophenyl)-2,3-dihydro-1H-inden-1-yl)azetidine-3-carboxylic acid], the EC50 was not above 10 nM.
With `O=C(O)C1CCN(C2CCc3cc(-c4ccc(C5CC5)c(Cl)c4)ccc32)CC1` (single isomer, unassigned) [Compound 32a, 1-(5-(3-chloro-4-cyclopropylphenyl)-2,3-dihydro-1H-inden-1-yl)piperidine-4-carboxylic acid], the EC50 lay within 100 to 1000 nM.
Under `O=C(O)C1CCN(C2CCc3cc(-c4ccc(C5CC5)c(Cl)c4)ccc32)CC1` (single isomer, unassigned) [Compound 32b, 1-(5-(3-chloro-4-cyclopropylphenyl)-2,3-dihydro-1H-inden-1-yl)piperidine-4-carboxylic acid] stands not above 10 nM.
On to `O=C(O)[C@@H]1CCN(C2CCc3cc(-c4ccc(C5CC5)c(Cl)c4)ccc32)C1` (single isomer, unassigned) [Compound 34a], for which the EC50 was not above 10 nM.
With `O=C(O)[C@@H]1CCN(C2CCc3cc(-c4ccc(C5CC5)c(Cl)c4)ccc32)C1` (single isomer, unassigned) [Compound 34b] the figure was not above 10 nM; with `O=C(O)[C@H]1CCN(C2CCc3cc(-c4ccc(C5CC5)c(Cl)c4)ccc32)C1` (single isomer, unassigned) [Compound 35a], 10 to 100 nM.
Turning to `O=C(O)[C@H]1CCN(C2CCc3cc(-c4ccc(C5CC5)c(Cl)c4)ccc32)C1` (single isomer, unassigned) [Compound 35b], the EC50 was in the range of 10 to 100 nM.
As for `O=C(O)[C@@H]1CCN(C2CCc3cc(-c4ccc(C5CC5)c(F)c4)ccc32)C1` (single isomer, unassigned) [Compound 36a], the EC50 was not above 10 nM.
Regarding `O=C(O)[C@@H]1CCN(C2CCc3cc(-c4ccc(C5CC5)c(F)c4)ccc32)C1` (single isomer, unassigned) [Compound 36b], the EC50 was not above 10 nM.
In the case of `O=C(O)[C@H]1CCN(C2CCc3cc(-c4ccc(C5CC5)c(F)c4)ccc32)C1` (single isomer, unassigned) [Compound 37a], the EC50 is 100 to 1000 nM.
With `O=C(O)[C@H]1CCN(C2CCc3cc(-c4ccc(C5CC5)c(F)c4)ccc32)C1` (single isomer, unassigned) [Compound 37b] the figure was 10 to 100 nM; with `COc1cc(OC)cc(-c2ccc3c(c2)CCC3N2CCC(C(=O)O)CC2)c1` (single isomer, unassigned) [Compound 40, 1-(5-(3,5-dimethoxyphenyl)-2,3-dihydro-1H-inden-1-yl)piperidine-4-carboxylic acid], 100 to 1000 nM; with `O=C(O)C1CCN(C2CCc3cc(-c4ccc5c(c4)OCC5)ccc32)CC1` (single isomer, unassigned) [Compound 41, 1-(5-(2,3-dihydrobenzofuran-6-yl)-2,3-dihydro-1H-inden-1-yl)piperidine-4-carboxylic acid], 100 to 1000 nM.
For `O=C(O)C1CCN(C2CCc3cc(-c4ccc5ocnc5c4)ccc32)CC1` (single isomer, unassigned) [Compound 42, 1-(5-(benzo[d]oxazol-5-yl)-2,3-dihydro-1H-inden-1-yl)piperidine-4-carboxylic acid], the EC50 fell in the range of 1000 to 10000 nM.
With `O=C(O)C1CCN(C2CCc3cc(-c4ccc5c(c4)CCO5)ccc32)CC1` (single isomer, unassigned) [Compound 43, 1-(5-(2,3-dihydrobenzofuran-5-yl)-2,3-dihydro-1H-inden-1-yl)piperidine-4-carboxylic acid] the figure was 100 to 1000 nM; with `O=C(O)C1CCN(C2CCc3cc(-c4ccc5c(c4)CCC5)ccc32)CC1` (single isomer, unassigned) [Compound 44, 1-(2,2′,3,3′-tetrahydro-1H,1′H-[5,5′-biinden]-1-yl)piperidine-4-carboxylic acid], 10 to 100 nM; with `O=C(O)C1CCN(C2CCc3cc(-c4cccc5c4CCC5)ccc32)CC1` (single isomer, unassigned) [Compound 45, 1-(2,2′,3,3′-tetrahydro-1H,1′H-[4,5′-biinden]-1′-yl)piperidine-4-carboxylic acid], 100 to 1000 nM.
Regarding `O=C(O)C1CCN(C2CCc3cc(C#Cc4c(Cl)cccc4Cl)ccc32)CC1` (stereo not drawn) [Compound 1, 1-(5-((2,6-dichlorophenyl)ethynyl)-2,3-dihydro-1H-inden-1-yl)piperidine-4-carboxylic acid], the EC50 is not above 10 nM.
With `O=C(O)C1=CCN(C2CCc3cc(C#Cc4c(Cl)cccc4Cl)ccc32)CC1` (stereo not drawn) [Compound 2, 1-(5-((2,6-dichlorophenyl)ethynyl)-2,3-dihydro-1H-inden-1-yl)-1,2,3,6-tetrahydropyridine-4-carboxylic acid] the figure was not above 10 nM; with `CC1(C)CN(C2CCc3cc(C#Cc4cccc(F)c4)ccc32)CCC1C(=O)O` (stereo not drawn) [Compound 5, 1-(5-((3-fluorophenyl)ethynyl)-2,3-dihydro-1H-inden-1-yl)-3,3-dimethylpiperidine-4-carboxylic acid], 100 to 1000 nM.
With `O=C(O)C1C2CCC1CN(C1CCc3cc(C#Cc4cccc(F)c4)ccc31)C2` [Compound 10, (1R,5S,8s)-3-(5-((3-fluorophenyl)ethynyl)-2,3-dihydro-1H-inden-1-yl)-3-azabicyclo[3.2.1]-octane-8-carboxylic acid] the figure was 100 to 1000 nM; with `O=C(O)C1CCN(C2CCc3cc(C#Cc4ccccc4F)ccc32)CC12CC2` (stereo not drawn) [Compound 11, 5-(5-((2-fluorophenyl)ethynyl)-2,3-dihydro-1H-inden-1-yl)-5-azaspiro[2.5]octane-8-carboxylic acid], 10 to 100 nM; with `O=C(O)C1CCN(C2CCc3cc(C#Cc4cccc(F)c4)ccc32)CC12CC2` (stereo not drawn) [Compound 12, 5-(5-((3-fluorophenyl)ethynyl)-2,3-dihydro-1H-inden-1-yl)-5-azaspiro[2.5]octane-8-carboxylic acid], 10 to 100 nM.
